These results are taken from patent publication US20020111314A1, “Novel stimulation of gene expression and protein synthesis of heat shock protein 72/73 (Hsp 70)” (The Trustees of Columbia University, priority 1995, published 2002).

The test system of assay [1] is Hsp90, Hsp60, Hsp25, Hsp27, Hsp86, Hsp104, Bip and albumin. As to the kind of experiment: Biosynthesis of other Hsp family members and related proteins in HepG2 cells (SDS-PAGE, immunoprecipitation). The format is cell-based, human. How it is done: FIGS. 2A-2B: Effects of ALLN on Hsp25, Hsp60, Hsp90 and Bip biosynthesis. HepG2 cells were pre-treated and radiolabeled with/without ALLN for 4 hours as described in FIG. 1. Cell lysates were denatured and aliquoted for immunoprecipitation with anti-Hsp25, anti-Hsp60, anti-Hsp90, or anti-Bip antibodies respectively (1 μg/ml). Because the anti-Hsp90 antibody is of rat source, rabbit anti-rat IgG antibody was added after the first incubation and the incubation was extended for another 1 hour at 4° C. before collection with protein A-Sepharose. Immunoprecipitates were aliquoted for scintillation counting and plotted. Each value is presented as means±SD from three individual experiments.
FIGS. 7A-7B: Effects of ALLN on the biosynthesis of other members of Hsp family and related proteins. HepG2cells were pre-treated and radiolabeled with or without ALLN for 4 hours as described in FIG. 1. […]
HepG2 cells were preincubated for 4 hours in serum-free MEM and then radiolabeled with ^3H-Leucine (150 μCi/ml) in a serum-free, leucine-free medium. […] Cell lysates containing equal amounts of trichloroacetic acid (TCA)-insoluble radioactivity were used for immunoprecipitations by incubating with individual monoclonal antibody (1 μg/ml) for 2.5 hours at 4° C. […]

Another assay deals with Hsp70. Put plainly: Hsp70 induction in human microvascular endothelial cell line. The format is cell-based. To be noted: 4 hours ALLN 40 μg/ml, 30 min labeling with [3H]-leucine.
A further assay deals with hsp70, i.e. hsp72, mRNA. Put plainly: Northern blot of hsp70 (hsp72) mRNA in HepG2 cells. To be noted: ALLN 40 μg/ml, 4 hours at 37° C. Type of assay: cell-based, human. How it is done:
After 4 hours treatment at 37° C., cells were harvested. (B). […] The total RNA was prepared, and equal amounts of the samples were loaded and run on a 1% formaldehyde-agarose gel, blotted onto a nylon membrane, and subsequently hybridized with specific synthetic oligonucleotide probes for hsp70 mRNA as described under Experimental Details. The position of 28S and 18S rRNA are shown for reference.
Equal amounts of tRNA samples (10 μg) were size-fractionated on a 1% agarose-formaldehyde gel according to the methods described (Maniatis, et al., 1982) and transferred to a piece of QIAGEN plus nylon membrane. To determine loading and transfer efficiency, RNA was stained with ethidium bromide before and after transfer. The membrane was baked for 30 min. at 80° C. in vacuo (a vacuum) followed by UV cross-linking. It was then incubated for 4 hours at 65° C. in a prehybridization mixture containing 10% dextran sulfate, 1% SDS, 1M sodium chloride, 50 mM Tris-HCl (pH 7.5) and 100 μg/ml denatured salmon sperm DNA. […] The membrane was then washed four times with 2×SSC, 0.1% SDS at room temperature, one time at 65° C. for 30 min., and one time at room temperature again for 5 min., and finally rinsed with 2×SSC at room temperature.

In a further assay the test system is proteasomes. To be noted: Rock, et al., 1994; cited from earlier work.

Entries after “also recorded” stand apart in the source; their conditions may differ. Square brackets hold non-standard residues; d marks the D form. Peptide text beside a SMILES is read from it. Nle = CCCC[C@H](N)C(=O)O

Consider `CCCC[C@@H](C=O)NC(=O)[C@H](CC(C)C)NC(=O)[C@H](CC(C)C)NC(C)=O` [ALLN, N-acetyl-leucyl-leucyl-norleucinal] (Ac-Leu-Leu-[Nle]-aldehyde), for which, in assay [1] (ALLN 4 hours), the “effect on Hsp90, Hsp60, Hsp25, Hsp27, Hsp86, Hsp104, Bip or albumin levels” value is on record as “no effects; also recorded: only Hsp70 was induced”. For the same compound, in assay [1] (ALLN-treated vs control), the “level of a protein of about 80-90 kDa (whole-cell protein pattern, FIG. 2A)” value is on record as “also increased but not as significantly as Hsp70”. The “increment of Hsp70 level” value in the assay with Hsp70 was determined as 35 fold. Besides, the “amount of hsp70, i.e. hsp72, mRNA” value in the assay with hsp70, i.e. hsp72, mRNA is “increased dramatically”. Besides, the inhibition of proteasomes result with proteasomes is “potent inhibitors”.
